Experimental findings from patent US9802944B2, “Bicyclic compounds as autotaxin (ATX) and lysophosphatidic acid (LPA) production inhibitors” (Hoffmann-La Roche Inc., priority 2014, dated 2017) are described below.

The target of this assay is ATX (human His-tagged) (Homo sapiens (Human), UniProt Q13822). The assay is described as follows: Human ATX enzyme inhibition assay (fluorescence quenching, MR121 substrate). It is filed as biochemical. To be noted: 30 nM ATX, 1 μM MR121 substrate, 30° C., pH 8.0. The protocol:
Production of Human Full Length ATX, with and without his Tag
Autotaxin (ATX-ENPP2) Cloning:
cDNA was prepared from commercial human hematopoietic cells total RNA and used as template in overlapping PCR to generate a full length human ENPP2 ORF with or without a 3′-6×His tag. These full length inserts were cloned into the pcDNA3.1V5-His TOPO (Invitrogen) vector. The DNA sequences of several single clones were verified. The DNA from a correct full length clone was used to transfect Hek293 cells for verification of protein expression. […] ATX Fermentation: Recombinant protein was produced by large-scale transient transfection in 20 L controlled stirred tank bioreactors (Sartorius). During cell growth and transfection, temperature, stirrer speed, pH and dissolved oxygen concentration were maintained at 37° C., 120 rpm, 7.1 and 30% DO, respectively. […] Expression was analyzed by Western Blot, enzymatic assay and/or analytical IMAC chromatography. After cooling the cell suspension to 4° C. in a flow-through heat exchanger, cell separation and sterile filtration of supernatant was performed by filtration through Zeta Plus 60M02 E16 (Cuno) and Sartopore 2 XLG (Sartorius) filter units. The supernatant was stored at 4° C. prior to purification. ATX Purification: 20 liter of culture supernatant were conditioned for ultrafiltration by adding Brij 35 to a final concentration of 0.02% and by adjusting the pH to 7.0 using 1 M HCl. Then the supernatant was first microfiltered through a 0.2 μm Ultran-Pilot Open Channel PES filter (Whatman) and afterwards concentrated to 1 liter through an Ultran-Pilot Screen Channel PES filter with 30 kDa MWCO (Whatman). Prior to IMAC chromatography, NiSO4 was added to a final concentration of 1 mM. The cleared supernatant was then applied to a HisTrap column (GE Healthcare) previously equilibrated in 50 mM Na2HPO4 pH 7.0, 0.5 M NaCl, 10% glycerol, 0.3% CHAPS, 0.02% NaN3. The column was washed stepwise with the same buffer containing 20 mM, 40 mM and 50 mM imidazole, respectively. The protein was subsequently eluted using a linear gradient to 0.5 M imidazole in 15 column volumes. ATX containing fractions were pooled and concentrated using an Amicon cell equipped with a 30 kDa PES filter membrane. The protein was further purified by size exclusion chromatography on Superdex S-200 prep grade (XK 26/100) (GE Healthcare) in 20 mM BICINE pH 8.5, 0.15 M NaCl, 10% glycerol, 0.3% CHAPS, 0.02% NaN3. […] The protein was stored at −80° C. […] 10 μL of MR121 substrate solution was added (1 μM final concentration), mixed 30 times and then incubated for 15 minutes at 30° C.
Usually IC50 stands for the point on the concentration scale where inhibition reaches its midpoint. A higher IC50 goes with weaker potency. The compound `NS(=O)(=O)c1ccc(C(=O)N2C[C@H]3CN(C(=O)c4cnc(OC5CCCOC5)c(C5CC5)c4)C[C@@H]3C2)nc1` (stereo partly drawn) [Example 2.13, 6-((3aR,6aR)-5-(5-cyclopropyl-6-(tetrahydro-2H-pyran-3-yloxy)nicotinoyl)octahydropyrrolo[3,4-c]pyrrole-2-carbonyl)pyridine-3-sulfonamide] had an IC50 of 10 nM.
The result for `O=C(c1cc(OCC2CCOCC2)cc(C2CC2)c1)N1C[C@@H]2CN(C(=O)[C@@H]3CCc4[nH]nnc4C3)C[C@H]2C1` [Example 1.16, ((3aS,6aS)-5-(3-cyclopropyl-5-((tetrahydro-2H-pyran-4-yl)methoxy)benzoyl)hexahydropyrrolo[3,4-c]pyrrol-2(1H)-yl)((R)-4,5,6,7-tetrahydro-1H-benzo[d][1,2,3]triazol-5-yl)methanone] reads 6 nM; that for `O=C(c1ccc2[nH]nnc2c1)N1CC[C@@H]2CN(C(=O)c3cc(OCC4CCOCC4)nc(C4CC4)c3)C[C@@H]2CC1` [Example 2.22, ((3aR,8aS)-6-(1H-benzo[d][1,2,3]triazole-5-carbonyl)octahydropyrrolo[3,4-d]azepin-2(1H)-yl)(2-cyclopropyl-6-((tetrahydro-2H-pyran-4-yl)methoxy)pyridin-4-yl)methanone], 10 nM; that for `O=C(c1cc(OCC2CCCOC2)nc(C2CC2)c1)N1C[C@@H]2CN(C(=O)c3ccc4[nH]nnc4c3)C[C@H]2C1` (stereo partly drawn) [Example 2.15, ((3aS,6aS)-5-(1H-benzo[d][1,2,3]triazole-5-carbonyl)hexahydropyrrolo[3,4-c]pyrrol-2(1H)-yl)(2-cyclopropyl-6-((tetrahydro-2H-pyran-3-yl)methoxy)pyridin-4-yl)methanone], 12 nM.
Take `O=C(CCc1c[nH]c(=O)s1)N1C[C@H]2CCN(C(=O)c3cc(OCC4CCOCC4)nc(C4CC4)c3)CC[C@H]2C1` [Example 1.22, 5-(3-((3aR,8aS)-6-(2-cyclopropyl-6-((tetrahydro-2H-pyran-4-yl)methoxy)isonicotinoyl)octahydropyrrolo[3,4-d]azepin-2(1H)-yl)-3-oxopropyl)thiazol-2(3H)-one]: the midpoint of inhibition, the IC50, lay at 14 nM.
The figure for `O=C(c1cc(Cl)nc(OCC2CCOCC2)c1)N1C[C@@H]2CN(C(=O)c3ccc4[nH]nnc4c3)C[C@H]2C1` [Example 2.20, ((3aS,6aS)-5-(1H-benzo[d][1,2,3]triazole-5-carbonyl)hexahydropyrrolo[3,4-c]pyrrol-2(1H)-yl)(2-chloro-6-((tetrahydro-2H-pyran-4-yl)methoxy)pyridin-4-yl)methanone] is 40 nM; for `O=C(c1cnc(OC2CCOCC2)c(C2CC2)c1)N1C[C@@H]2CN(C(=O)c3ccc4[nH]c(=O)oc4c3)C[C@H]2C1` [Example 3, 6-((3aS,6aS)-5-(5-Cyclopropyl-6-(tetrahydro-2H-pyran-4-yloxy)nicotinoyl)octahydropyrrolo[3,4-c]pyrrole-2-carbonyl)benzo[d]oxazol-2(3H)-one] it is 25 nM.
The result for `NS(=O)(=O)c1ccc(C(=O)N2C[C@H]3CN(C(=O)c4cc(OCC5CCOCC5)nc(C5CC5)c4)C[C@@H]3C2)cc1Cl` [Example 1.05, 2-chloro-4-((3aR,6aR)-5-(2-cyclopropyl-6-((tetrahydro-2H-pyran-4-yl)methoxy)isonicotinoyl)octahydropyrrolo[3,4-c]pyrrole-2-carbonyl)benzenesulfonamide] reads 6 nM; that for `NS(=O)(=O)c1ccc(C(=O)N2C[C@H]3CN(C(=O)c4cnc(OC5CCOCC5)c(C5CC5)c4)C[C@@H]3C2)cc1` [Example 1.02, 4-((3aS,6aS)-5-(5-cyclopropyl-6-(tetrahydro-2H-pyran-4-yloxy)nicotinoyl)octahydropyrrolo[3,4-c]pyrrole-2-carbonyl)benzenesulfonamide], 22 nM; that for `O=C(c1cnc(OC2CCOC2)c(C2CC2)c1)N1C[C@@H]2CN(C(=O)c3ccc4[nH]nnc4c3)C[C@H]2C1` (stereo partly drawn) [Example 2.05, ((3aS,6aS)-5-(1H-benzo[d][1,2,3]triazole-5-carbonyl)hexahydropyrrolo[3,4-c]pyrrol-2(1H)-yl)(5-cyclopropyl-6-(tetrahydrofuran-3-yloxy)pyridin-3-yl)methanone], 10.5 nM.
For the compound `O=C(c1cc(OCC2CCOCC2)nc(C2CC2)c1)N1C[C@@H]2CN(Cc3ccc4[nH]c(=O)oc4c3)C[C@H]2C1` [Example 2.24, 6-(((3aS,6aS)-5-(2-cyclopropyl-6-((tetrahydro-2H-pyran-4-yl)methoxy)isonicotinoyl)hexahydropyrrolo[3,4-c]pyrrol-2(1H)-yl)methyl)benzo[d]oxazol-2(3H)-one], the IC50 came to 11 nM.
`O=C(c1cnc(NC2CCOCC2)c(C2CC2)c1)N1C[C@@H]2CN(C(=O)c3ccc4[nH]nnc4c3)C[C@H]2C1` [Example 2.04, ((3aS,6aS)-5-(1H-benzo[d][1,2,3]triazole-5-carbonyl)hexahydropyrrolo[3,4-c]pyrrol-2(1H)-yl)(5-cyclopropyl-6-(tetrahydro-2H-pyran-4-ylamino)pyridin-3-yl)methanone] returned an IC50 of 40 nM.
The compound `NS(=O)(=O)c1ccc(C(=O)N2C[C@H]3CN(C(=O)c4cc(OCC5CCCOC5)nc(C5CC5)c4)C[C@@H]3C2)nc1` (stereo partly drawn) [Example 2.17, 6-((3aR,6aR)-5-(2-cyclopropyl-6-((tetrahydro-2H-pyran-3-yl)methoxy)isonicotinoyl)octahydropyrrolo[3,4-c]pyrrole-2-carbonyl)pyridine-3-sulfonamide] registered an IC50 of 9 nM. Against the preceding compound, the IC50 is about 4.4-fold lower.
For `NS(=O)(=O)c1ccc(C(=O)N2C[C@H]3CN(C(=O)c4cc(OCC5CCOCC5)nc(C5CC5)c4)C[C@@H]3C2)cc1F` [Example 1.04, 4-((3aR,6aR)-5-(2-cyclopropyl-6-((tetrahydro-2H-pyran-4-yl)methoxy)isonicotinoyl)octahydropyrrolo[3,4-c]pyrrole-2-carbonyl)-2-fluorobenzenesulfonamide], the IC50 came out at 8 nM.
Regarding `O=C(c1cc(OCC2CCOCC2)cc(C2CC2)c1)N1C[C@@H]2CN(C(=O)c3ccc4[nH]nnc4c3)C[C@H]2C1` [Example 2.29, ((3aS,6aS)-5-(1H-benzo[d][1,2,3]triazole-5-carbonyl)hexahydropyrrolo[3,4-c]pyrrol-2(1H)-yl)(3-cyclopropyl-5-((tetrahydro-2H-pyran-4-yl)methoxy)phenyl)methanone], inhibition was half-maximal at 7 nM (IC50).
Turning to `NS(=O)(=O)c1ccc(C(=O)N2C[C@H]3CN(C(=O)c4cc(OCC5CCOCC5)nc(C5CC5)c4)C[C@@H]3C2)nc1` [Example 2.14, 6-((3aR,6aR)-5-(2-cyclopropyl-6-((tetrahydro-2H-pyran-4-yl)methoxy)isonicotinoyl)octahydropyrrolo[3,4-c]pyrrole-2-carbonyl)pyridine-3-sulfonamide], the IC50 was 6 nM.
The result for `O=C(c1ccc(OC2CCOC2)c(C2CC2)c1)N1C[C@@H]2CN(C(=O)c3ccc4[nH]nnc4c3)C[C@H]2C1` (stereo partly drawn) [Example 2.03, ((3aR,6aR)-5-(1H-benzo[d][1,2,3]triazole-5-carbonyl)hexahydropyrrolo[3,4-c]pyrrol-2(1H)-yl)(3-cyclopropyl-4-(tetrahydrofuran-3-yloxy)phenyl)methanone] reads 10 nM.
In turn, `O=C(c1cnc(OC2CCCOC2)c(C2CC2)c1)N1C[C@@H]2CN(C(=O)c3ccc4[nH]nnc4c3)C[C@H]2C1` (stereo partly drawn) [Example 2.06, ((3aS,6aS)-5-(1H-benzo[d][1,2,3]triazole-5-carbonyl)hexahydropyrrolo[3,4-c]pyrrol-2(1H)-yl)(5-cyclopropyl-6-(tetrahydro-2H-pyran-3-yloxy)pyridin-3-yl)methanone] returned an IC50 of 4.5 nM. This IC50 is about 2.2-fold lower than that of the compound before.
